#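 Test compounds were applied to cells in 96-well plates for 48 hours at 5 doses. GI50: concentration for 50% inhibition of growth.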 Activity calls are given as the source filed them. Rule as the data show it: active = GI50 up to about 1.1 µM and inactive = higher.
# Columns and labels:
# Test in all cases: NCI tumour cell line growth inhibition, 48 h
# 786-0 = tested on: 786-0
# LOX IMVI = tested on: LOX IMVI
# SF-295 = tested on: SF-295
# NCI-H23 = tested on: NCI-H23
# HOP-62 = tested on: HOP-62
# SR = tested on: SR
# ACHN = tested on: ACHN
# M14 = tested on: M14
# EKVX = tested on: EKVX
# K562 = tested on: K562
# SNB-19 = tested on: SNB-19
# M19-MEL = tested on: M19-MEL
# HT-29 = tested on: HT-29
# SK-MEL-5 = tested on: SK-MEL-5
# OVCAR-5 = tested on: OVCAR-5
# KM12 = tested on: KM12
# SK-MEL-28 = tested on: SK-MEL-28
# RXF 631 = tested on: RXF 631
# IGROV-1 = tested on: IGROV-1
# SNB-78 = tested on: SNB-78
# Malme-3M = tested on: Malme-3M
# UACC-257 = tested on: UACC-257
# OVCAR-4 = tested on: OVCAR-4
# MOLT-4 = tested on: MOLT-4
# NCI-H460 = tested on: NCI-H460
# DMS-273 = tested on: DMS-273
# DMS-114 = tested on: DMS-114
# OVCAR-3 = tested on: OVCAR-3
# HCT-15 = tested on: HCT-15
# KM-20L2 = tested on: KM-20L2
# SN12C = tested on: SN12C
# HOP-92 = tested on: HOP-92
# SK-OV-3 = tested on: SK-OV-3
# CCRF-CEM = tested on: CCRF-CEM
# HL-60 = tested on: HL-60
# NCI-H522 = tested on: NCI-H522
# UACC-62 = tested on: UACC-62
# UO-31 = tested on: UO-31
# A498 = tested on: A498
# HCT-116 = tested on: HCT-116
# OVCAR-8 = tested on: OVCAR-8
# U-251 = tested on: U-251
# TK-10 = tested on: TK-10
# A549 = tested on: A549
# RPMI-8226 = tested on: RPMI-8226
# SF-268 = tested on: SF-268
# LXFL 529 = tested on: LXFL 529
# SNB-75 = tested on: SNB-75
# RXF 393 = tested on: RXF 393
# SK-MEL-2 = tested on: SK-MEL-2
# CAKI-1 = tested on: CAKI-1
# NCI-H226 = tested on: NCI-H226
# XF498 = tested on: XF498
# COLO 205 = tested on: COLO 205
# DLD-1 = tested on: DLD-1
# SW-620 = tested on: SW-620
# SF-539 = tested on: SF-539
# HCC 2998 = tested on: HCC 2998
smiles,measurement,setting,value
O=[N+]([O-])c1ccc(C(Cl)C(Cl)c2ccc(C(Cl)C(Cl)c3ccc([N+](=O)[O-])cc3[N+](=O)[O-])cc2)c([N+](=O)[O-])c1 (stereo not drawn),GI50,786-0,1390 nM (inactive)
same,GI50,LOX IMVI,1360 nM (inactive)
same,GI50,SF-295,2310 nM (inactive)
same,GI50,NCI-H23,1520 nM (inactive)
same,GI50,HOP-62,3010 nM (inactive)
same,GI50,SR,2230 nM (inactive)
same,GI50,ACHN,2050 nM (inactive)
same,GI50,M14,879 nM (active)
same,GI50,EKVX,2130 nM (inactive)
same,GI50,K562,187 nM (active)
same,GI50,SNB-19,671 nM (active)
same,GI50,M19-MEL,1330 nM (inactive)
same,GI50,HT-29,1760 nM (inactive)
same,GI50,SK-MEL-5,991 nM (active)
same,GI50,OVCAR-5,1860 nM (inactive)
same,GI50,KM12,264 nM (active)
same,GI50,SK-MEL-28,2300 nM (inactive)
same,GI50,RXF 631,1570 nM (inactive)
same,GI50,IGROV-1,2050 nM (inactive)
same,GI50,SNB-78,3440 nM (inactive)
same,GI50,Malme-3M,1270 nM (inactive)
same,GI50,UACC-257,1720 nM (inactive)
same,GI50,OVCAR-4,1520 nM (inactive)
same,GI50,MOLT-4,1610 nM (inactive)
same,GI50,NCI-H460,957 nM (active)
same,GI50,DMS-273,1470 nM (inactive)
same,GI50,DMS-114,1420 nM (inactive)
same,GI50,OVCAR-3,254 nM (active)
same,GI50,HCT-15,1190 nM
same,GI50,KM-20L2,63.8 nM (active)
same,GI50,SN12C,1950 nM (inactive)
same,GI50,HOP-92,1280 nM (inactive)
same,GI50,SK-OV-3,22800 nM (inactive)
same,GI50,CCRF-CEM,232 nM (active)
same,GI50,HL-60,1930 nM (inactive)
same,GI50,NCI-H522,1140 nM (inactive)
same,GI50,UACC-62,1160 nM (inactive)
same,GI50,UO-31,2170 nM (inactive)
same,GI50,A498,2900 nM (inactive)
same,GI50,HCT-116,931 nM (active)
same,GI50,OVCAR-8,912 nM (active)
same,GI50,U-251,1260 nM (inactive)
same,GI50,TK-10,5790 nM (inactive)
same,GI50,A549,1630 nM (inactive)
same,GI50,RPMI-8226,800 nM (active)
same,GI50,SF-268,1890 nM (inactive)
same,GI50,LXFL 529,920 nM (active)
same,GI50,SNB-75,8020 nM (inactive)
same,GI50,RXF 393,964 nM (active)
same,GI50,SK-MEL-2,1420 nM (inactive)
same,GI50,CAKI-1,1670 nM (inactive)
same,GI50,NCI-H226,2290 nM (inactive)
same,GI50,XF498,184 nM (active)
same,GI50,COLO 205,1000 nM (active)
same,GI50,DLD-1,1780 nM (inactive)
same,GI50,SW-620,750 nM (active)
same,GI50,SF-539,1670 nM (inactive)
same,GI50,HCC 2998,1960 nM (inactive)

# Reference: ChEMBL document CHEMBL1201862, “PubChem BioAssay data set” (2004)
